The target in one assay is hNav1.7 (Homo sapiens, UniProt Q15858). The assay can be described thus: cell-based.
A further assay concerns the target hNav1.5 (Homo sapiens, UniProt Q14524). The assay can be described thus: cell-based.

Read-outs that look alike come from different tables or passages of the source. Positions of bridges follow the written chain, without caps; N, C: chain ends. Non-standard residues stand in square brackets, D forms with d. Residues, ends and D or L forms follow the SMILES beside them. *: point of attachment. 1Nal = N[C@@H](Cc1cccc2ccccc12)C(=O)O; Pent4ynoyl = C#CCCC(=O)*; Abu = CC[C@H](N)C(=O)O Where only a bound is given, the exact number is not on record here.

hNav1.7, sequence (Q15858 whole entry, looked up): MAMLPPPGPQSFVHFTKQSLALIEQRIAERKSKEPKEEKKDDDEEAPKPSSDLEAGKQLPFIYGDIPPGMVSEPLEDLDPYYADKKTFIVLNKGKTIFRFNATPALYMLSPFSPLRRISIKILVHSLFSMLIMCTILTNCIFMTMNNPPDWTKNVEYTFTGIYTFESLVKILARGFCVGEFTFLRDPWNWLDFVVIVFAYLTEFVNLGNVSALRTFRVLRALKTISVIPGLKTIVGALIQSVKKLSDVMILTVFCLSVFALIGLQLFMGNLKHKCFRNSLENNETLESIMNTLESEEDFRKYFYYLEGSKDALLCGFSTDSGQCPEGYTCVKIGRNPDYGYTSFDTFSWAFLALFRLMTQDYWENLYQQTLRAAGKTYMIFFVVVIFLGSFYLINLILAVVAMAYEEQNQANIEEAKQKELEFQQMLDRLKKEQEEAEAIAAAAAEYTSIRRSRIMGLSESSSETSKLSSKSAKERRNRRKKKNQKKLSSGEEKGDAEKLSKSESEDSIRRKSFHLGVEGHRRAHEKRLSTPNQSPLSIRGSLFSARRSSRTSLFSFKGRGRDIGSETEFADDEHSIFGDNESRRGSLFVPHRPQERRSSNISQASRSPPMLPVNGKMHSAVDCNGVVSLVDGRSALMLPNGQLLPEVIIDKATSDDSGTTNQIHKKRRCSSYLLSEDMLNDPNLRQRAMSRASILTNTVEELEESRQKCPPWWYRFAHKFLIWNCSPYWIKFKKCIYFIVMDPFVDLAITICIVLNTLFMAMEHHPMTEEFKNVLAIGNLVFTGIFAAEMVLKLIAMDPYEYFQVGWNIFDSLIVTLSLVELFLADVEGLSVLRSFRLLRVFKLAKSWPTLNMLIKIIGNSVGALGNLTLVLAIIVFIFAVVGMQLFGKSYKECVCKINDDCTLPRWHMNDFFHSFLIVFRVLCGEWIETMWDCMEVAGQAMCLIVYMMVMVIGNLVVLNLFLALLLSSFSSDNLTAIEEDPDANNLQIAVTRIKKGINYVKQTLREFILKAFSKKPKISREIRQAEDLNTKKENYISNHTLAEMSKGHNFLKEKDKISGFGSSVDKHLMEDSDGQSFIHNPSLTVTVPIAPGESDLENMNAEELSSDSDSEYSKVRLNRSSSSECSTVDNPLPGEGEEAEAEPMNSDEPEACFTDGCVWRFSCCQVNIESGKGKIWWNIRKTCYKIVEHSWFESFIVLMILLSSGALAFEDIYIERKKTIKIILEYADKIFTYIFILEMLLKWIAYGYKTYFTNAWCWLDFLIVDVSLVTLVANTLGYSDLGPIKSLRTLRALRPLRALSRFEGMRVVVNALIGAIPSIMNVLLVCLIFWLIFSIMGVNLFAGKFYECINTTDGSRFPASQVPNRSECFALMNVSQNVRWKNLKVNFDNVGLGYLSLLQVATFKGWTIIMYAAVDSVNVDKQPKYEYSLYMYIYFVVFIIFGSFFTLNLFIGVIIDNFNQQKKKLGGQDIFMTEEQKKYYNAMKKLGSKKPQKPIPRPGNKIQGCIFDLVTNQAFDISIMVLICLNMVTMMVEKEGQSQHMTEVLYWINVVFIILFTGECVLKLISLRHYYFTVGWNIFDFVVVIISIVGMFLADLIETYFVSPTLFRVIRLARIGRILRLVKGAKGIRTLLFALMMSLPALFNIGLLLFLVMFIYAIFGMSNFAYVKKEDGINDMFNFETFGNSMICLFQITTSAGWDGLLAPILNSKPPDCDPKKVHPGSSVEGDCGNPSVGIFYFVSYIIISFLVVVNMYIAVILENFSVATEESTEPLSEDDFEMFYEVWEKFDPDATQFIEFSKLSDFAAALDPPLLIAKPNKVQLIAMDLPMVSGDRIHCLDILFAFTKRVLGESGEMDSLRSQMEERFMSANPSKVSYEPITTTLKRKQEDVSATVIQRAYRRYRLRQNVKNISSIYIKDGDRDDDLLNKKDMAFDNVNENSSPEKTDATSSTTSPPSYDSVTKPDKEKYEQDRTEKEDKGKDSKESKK
hNav1.5, sequence (Q14524 whole entry, looked up): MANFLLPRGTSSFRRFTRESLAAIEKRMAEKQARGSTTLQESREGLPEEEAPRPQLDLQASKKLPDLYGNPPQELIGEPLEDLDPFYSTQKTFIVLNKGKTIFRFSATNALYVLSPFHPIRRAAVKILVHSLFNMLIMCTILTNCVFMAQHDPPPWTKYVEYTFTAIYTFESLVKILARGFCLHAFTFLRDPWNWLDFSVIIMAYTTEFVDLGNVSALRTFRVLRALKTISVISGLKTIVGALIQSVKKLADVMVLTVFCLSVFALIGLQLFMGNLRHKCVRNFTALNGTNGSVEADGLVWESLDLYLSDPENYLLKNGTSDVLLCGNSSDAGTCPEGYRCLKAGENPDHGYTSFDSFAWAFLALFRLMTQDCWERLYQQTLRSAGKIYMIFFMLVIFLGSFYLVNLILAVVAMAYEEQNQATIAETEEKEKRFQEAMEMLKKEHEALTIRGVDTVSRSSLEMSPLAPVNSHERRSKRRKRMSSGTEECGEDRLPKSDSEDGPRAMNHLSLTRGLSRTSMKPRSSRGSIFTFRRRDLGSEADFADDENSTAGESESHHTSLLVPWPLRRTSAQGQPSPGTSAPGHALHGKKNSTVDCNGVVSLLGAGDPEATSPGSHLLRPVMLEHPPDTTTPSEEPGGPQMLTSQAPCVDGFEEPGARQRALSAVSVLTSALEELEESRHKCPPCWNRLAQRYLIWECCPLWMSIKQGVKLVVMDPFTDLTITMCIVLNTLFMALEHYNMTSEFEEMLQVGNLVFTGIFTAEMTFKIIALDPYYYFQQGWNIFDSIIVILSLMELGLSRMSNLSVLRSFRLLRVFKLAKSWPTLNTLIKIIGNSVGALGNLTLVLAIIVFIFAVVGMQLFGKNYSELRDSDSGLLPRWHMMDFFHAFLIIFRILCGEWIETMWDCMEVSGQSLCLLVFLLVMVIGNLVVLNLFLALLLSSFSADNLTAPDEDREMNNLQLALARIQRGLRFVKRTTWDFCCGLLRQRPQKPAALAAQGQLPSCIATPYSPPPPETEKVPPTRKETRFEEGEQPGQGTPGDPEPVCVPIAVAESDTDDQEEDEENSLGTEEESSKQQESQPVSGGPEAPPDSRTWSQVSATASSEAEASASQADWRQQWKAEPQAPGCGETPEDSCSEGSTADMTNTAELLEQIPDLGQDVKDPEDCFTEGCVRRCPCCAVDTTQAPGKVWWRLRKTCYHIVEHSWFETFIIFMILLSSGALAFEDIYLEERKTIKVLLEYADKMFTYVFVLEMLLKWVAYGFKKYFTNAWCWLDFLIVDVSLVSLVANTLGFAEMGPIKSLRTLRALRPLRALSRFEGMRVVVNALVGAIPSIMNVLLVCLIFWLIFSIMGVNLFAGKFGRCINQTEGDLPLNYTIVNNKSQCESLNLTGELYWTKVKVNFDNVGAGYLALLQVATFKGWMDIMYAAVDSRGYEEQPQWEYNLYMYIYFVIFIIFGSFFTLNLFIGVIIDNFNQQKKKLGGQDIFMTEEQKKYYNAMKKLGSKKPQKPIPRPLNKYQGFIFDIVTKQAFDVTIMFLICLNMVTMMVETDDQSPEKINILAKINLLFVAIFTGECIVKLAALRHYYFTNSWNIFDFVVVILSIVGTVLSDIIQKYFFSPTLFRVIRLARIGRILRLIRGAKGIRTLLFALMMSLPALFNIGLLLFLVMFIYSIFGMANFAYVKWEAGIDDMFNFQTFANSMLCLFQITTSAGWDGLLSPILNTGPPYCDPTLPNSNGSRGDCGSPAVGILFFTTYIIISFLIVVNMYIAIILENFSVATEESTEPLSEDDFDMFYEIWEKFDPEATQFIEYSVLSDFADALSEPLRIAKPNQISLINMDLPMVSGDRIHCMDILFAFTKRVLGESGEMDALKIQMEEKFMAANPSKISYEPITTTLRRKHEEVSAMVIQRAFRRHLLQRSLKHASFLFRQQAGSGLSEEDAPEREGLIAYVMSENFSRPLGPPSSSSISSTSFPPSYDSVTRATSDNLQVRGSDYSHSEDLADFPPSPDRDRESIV

Turning to `C#CCCC(=O)N[C@@H](CC(=O)O)C(=O)N[C@H]1CSSC[C@@H]2NC(=O)[C@@H]3CSSC[C@@H](C(=O)N[C@@H](CCCCN)C(=O)N[C@@H](Cc4ccc(O)cc4)C(=O)N[C@H](C(=O)N[C@@H](Cc4ccccc4)C(N)=O)C(C)C)NC(=O)[C@H](Cc4c[nH]c5ccccc45)NC(=O)[C@H](CCCNC(=N)N)NC(=O)[C@H](Cc4c[nH]cn4)NC(=O)[C@H]([C@@H](C)O)NC(=O)[C@H](CCCNC(=N)N)NC(=O)[C@H](CO)NC(=O)[C@H](CSSC[C@H](NC(=O)[C@H](CCCCN)NC(=O)[C@H](CCCNC(=N)N)NC(=O)[C@H](CC(C)C)NC(=O)[C@H](CC)NC(=O)CNC(=O)[C@H](CC(C)C)NC1=O)C(=O)N[C@@H]([C@@H](C)CC)C(=O)N1CCC[C@H]1C(=O)N[C@@H](CC(=O)O)C(=O)N[C@@H](CC)C(=O)N[C@@H](CC(=O)O)C(=O)N[C@@H](CCCCN)C(=O)N3)NC(=O)[C@H](C(C)C)NC(=O)[C@H](CC(C)C)NC(=O)[C@H](CC(N)=O)NC(=O)[C@@H]1CCCN1C(=O)[C@H](CCCNC(=N)N)NC2=O` [4-Pen-[2-Abu5,13;Leu6;Arg28]GpTx-1(1-34)] (Pent4ynoyl-DCLG[Abu]LRKCIPD[Abu]DKCCRPNLVCSRTHRWCKYVF-NH2; disulfide 2-17, 9-23, 16-30), the half-maximal inhibitory concentration (IC50) on hNav1.7 (Nav1.7 Use IC50) was 3 nM; on hNav1.5, above 10000 nM.
Regarding `CC[C@H](C)[C@@H]1NC(=O)[C@@H]2CSSC[C@@H]3NC(=O)[C@H](C(C)C)NC(=O)[C@H](CC(C)C)NC(=O)[C@H](CC(N)=O)NC(=O)[C@@H]4CCCN4C(=O)[C@H](CCCNC(=N)N)NC(=O)[C@H](CSSC[C@H](NC(=O)[C@@H](N)CC(=O)O)C(=O)N[C@@H](CC(C)C)C(=O)NCC(=O)N[C@@H](C)C(=O)N[C@@H](Cc4ccccc4)C(=O)N[C@@H](CCCNC(=N)N)C(=O)N[C@@H](CCCCN)C(=O)N2)NC(=O)[C@H](CSSC[C@@H](C(=O)N[C@@H](CCCCN)C(=O)N[C@@H](Cc2ccc(O)cc2)C(=O)N[C@H](C(=O)N[C@@H](Cc2ccccc2)C(=O)N[C@@H](Cc2ccccc2)C(=O)O)C(C)C)NC(=O)[C@H](Cc2c[nH]c4ccccc24)NC(=O)[C@H](CCCNC(=N)N)NC(=O)[C@H](Cc2c[nH]cn2)NC(=O)[C@H]([C@@H](C)O)NC(=O)[C@H](CCCNC(=N)N)NC(=O)[C@H](CO)NC3=O)NC(=O)[C@H](CCCCN)NC(=O)[C@H](CC(=O)O)NC(=O)[C@H](CC(N)=O)NC(=O)[C@H](CC(=O)O)NC(=O)[C@@H]2CCCN2C1=O` [Ala5;Phe6;Arg28]GpTx-1(1-34)-Phe-] (H-DCLGAFRKCIPDNDKCCRPNLVCSRTHRWCKYVFF-OH; disulfide 2-17, 9-23, 16-30), the half-maximal inhibitory concentration (IC50) on hNav1.7 (Nav1.7 Use IC50) is 116 nM; on hNav1.5, above 10000 nM.
On to `CC[C@H](C)[C@@H]1NC(=O)[C@@H]2CSSC[C@@H]3NC(=O)[C@H](C(C)C)NC(=O)[C@H](CC(C)C)NC(=O)[C@H](CC(N)=O)NC(=O)[C@@H]4CCCN4C(=O)[C@H](CCCNC(=N)N)NC(=O)[C@H](CSSC[C@H](NC(=O)[C@@H](N)CC(=O)O)C(=O)N[C@@H](CC(C)C)C(=O)NCC(=O)N[C@@H](Cc4ccccc4)C(=O)N[C@@H](CCSC)C(=O)N[C@@H](CCCNC(=N)N)C(=O)N[C@@H](CCCCN)C(=O)N2)NC(=O)[C@H](CSSC[C@@H](C(=O)N[C@@H](CCCCN)C(=O)N[C@@H](Cc2ccc(O)cc2)C(=O)N[C@H](C(=O)N[C@@H](Cc2ccccc2)C(=O)N[C@@H](Cc2ccccn2)C(N)=O)C(C)C)NC(=O)[C@H](Cc2c[nH]c4ccccc24)NC(=O)[C@H](CCCCN)NC(=O)[C@H](Cc2c[nH]cn2)NC(=O)[C@H]([C@@H](C)O)NC(=O)[C@H](CCCNC(=N)N)NC(=O)[C@H](CO)NC3=O)NC(=O)[C@H](CCCCN)NC(=O)[C@H](CC(=O)O)NC(=O)[C@H](CC(N)=O)NC(=O)[C@H](CC(=O)O)NC(=O)[C@@H]2CCCN2C1=O` [GpTx-1(1-34)-2PAL], for which the IC50 at hNav1.7 (Nav1.7 Use IC50) was 27 nM; on hNav1.5, above 10000 nM.
On to `CC[C@H](C)[C@@H]1NC(=O)[C@@H]2CSSC[C@@H]3NC(=O)[C@H](C(C)C)NC(=O)[C@H](CC(C)C)NC(=O)[C@H](CC(N)=O)NC(=O)[C@@H]4CCCN4C(=O)[C@H](CCCNC(=N)N)NC(=O)[C@H](CSSC[C@H](NC(=O)[C@@H](N)CC(=O)O)C(=O)N[C@@H](CC(C)C)C(=O)NCC(=O)N[C@@H](Cc4ccccc4)C(=O)N[C@@H](CCSC)C(=O)N[C@@H](CCCNC(=N)N)C(=O)N[C@@H](CCCCN)C(=O)N2)NC(=O)[C@H](CSSC[C@@H](C(=O)N[C@@H](CCCCN)C(=O)N[C@@H](Cc2ccc(O)cc2)C(=O)N[C@H](C(=O)N[C@@H](Cc2ccccc2)C(N)=O)C(C)C)NC(=O)[C@H](Cc2c[nH]c4ccccc24)NC(=O)[C@H](CCCCN)NC(=O)[C@H](Cc2c[nH]cn2)NC(=O)[C@H]([C@@H](C)O)NC(=O)[C@H](CCCNC(=N)N)NC(=O)[C@H](CO)NC3=O)NC(=O)[C@H](CCCCN)NC(=O)[C@H](CC(=O)O)NC(=O)[C@H](Cc2cccc3ccccc23)NC(=O)[C@H](CC(=O)O)NC(=O)[C@@H]2CCCN2C1=O` [[1-Nal13]GpTx-1(1-34)] (H-DCLGFMRKCIPD[1Nal]DKCCRPNLVCSRTHKWCKYVF-NH2; disulfide 2-17, 9-23, 16-30), for which the IC50 on hNav1.7 (read-out: Nav1.7 Use IC50) is 2 nM; against hNav1.5, 7330 nM.
On to `CC[C@@H]1NC(=O)[C@@H]2CSSC[C@@H](C(=O)N[C@@H](CCCCN)C(=O)N[C@@H](Cc3ccc(O)cc3)C(=O)N[C@H](C(=O)N[C@@H](Cc3ccccc3)C(N)=O)C(C)C)NC(=O)[C@H](Cc3c[nH]c4ccccc34)NC(=O)[C@H](CCCCN)NC(=O)[C@H](Cc3c[nH]cn3)NC(=O)[C@H]([C@@H](C)O)NC(=O)[C@H](CCCNC(=N)N)NC(=O)[C@H](CO)NC(=O)[C@H](CSSC[C@H](NC(=O)[C@H](CCCCN)NC(=O)[C@H](CCCNC(=N)N)NC(=O)[C@H](CCSC)NC(=O)[C@H](Cc3ccccc3)NC(=O)CNC(=O)[C@H](CC(C)C)NC(=O)[C@H](CC)NC(=O)[C@@H](N)CC(=O)O)C(=O)N[C@@H]([C@@H](C)CC)C(=O)N3CCC[C@H]3C(=O)N[C@@H](CC(=O)O)C(=O)N[C@@H](CC(N)=O)C(=O)N[C@@H](CC(=O)O)C(=O)N[C@@H](CCCCN)C(=O)N2)NC(=O)[C@H](C(C)C)NC(=O)[C@H](CC(C)C)NC(=O)[C@H](CC(N)=O)NC(=O)[C@@H]2CCCN2C(=O)[C@H](CCCNC(=N)N)NC1=O` [[2-Abu2,17]GpTx-1(1-34)] (H-D[Abu]LGFMRKCIPDNDKC[Abu]RPNLVCSRTHKWCKYVF-NH2; disulfide 9-23, 16-30), for which the IC50 at hNav1.7 (Nav1.7 Use IC50) was determined as 21 nM; on hNav1.5, 10000 nM.
The like results for `CC[C@@H]1NC(=O)CNC(=O)[C@H](CC(C)C)NC(=O)[C@@H](NC(=O)[C@@H](N)CC(=O)O)CSSC[C@@H]2NC(=O)[C@@H]3CSSC[C@@H](C(=O)N[C@@H](CCCCN)C(=O)N[C@@H](Cc4ccc(O)cc4)C(=O)N[C@H](C(=O)N[C@@H](Cc4ccccc4)C(N)=O)C(C)C)NC(=O)[C@H](Cc4c[nH]c5ccccc45)NC(=O)[C@H](CCCCN)NC(=O)[C@H](Cc4c[nH]cn4)NC(=O)[C@H]([C@@H](C)O)NC(=O)[C@H](CCCNC(=N)N)NC(=O)[C@H](CO)NC(=O)[C@H](CSSC[C@H](NC(=O)[C@H](CCCCN)NC(=O)[C@H](CCCNC(=N)N)NC(=O)[C@H](CC(C)C)NC1=O)C(=O)N[C@@H]([C@@H](C)CC)C(=O)N1CCC[C@H]1C(=O)N[C@@H](CC(=O)O)C(=O)N[C@@H](CC(N)=O)C(=O)N[C@@H](CC(=O)O)C(=O)N[C@@H](CCCCN)C(=O)N3)NC(=O)[C@H](C(C)C)NC(=O)[C@H](CC(C)C)NC(=O)[C@H](CC(N)=O)NC(=O)[C@@H]1CCCN1C(=O)[C@H](CCCNC(=N)N)NC2=O` [[2-Abu5;Leu6]GpTx-1(1-34)] were, in that order, 22 nM and above 10000 nM.

The values above are taken from patent publication US9340590B2 (priority 2011, dated 2016).
